# Measured values as given in BindingDB's records for doi:10.1021/jm00021a021 (Tsukuba Research Institute, 1995).
# Biological target: T1, Endothelin-1 receptor (Sus scrofa, UniProt Q29010)
# T1 sequence (Q29010 whole entry): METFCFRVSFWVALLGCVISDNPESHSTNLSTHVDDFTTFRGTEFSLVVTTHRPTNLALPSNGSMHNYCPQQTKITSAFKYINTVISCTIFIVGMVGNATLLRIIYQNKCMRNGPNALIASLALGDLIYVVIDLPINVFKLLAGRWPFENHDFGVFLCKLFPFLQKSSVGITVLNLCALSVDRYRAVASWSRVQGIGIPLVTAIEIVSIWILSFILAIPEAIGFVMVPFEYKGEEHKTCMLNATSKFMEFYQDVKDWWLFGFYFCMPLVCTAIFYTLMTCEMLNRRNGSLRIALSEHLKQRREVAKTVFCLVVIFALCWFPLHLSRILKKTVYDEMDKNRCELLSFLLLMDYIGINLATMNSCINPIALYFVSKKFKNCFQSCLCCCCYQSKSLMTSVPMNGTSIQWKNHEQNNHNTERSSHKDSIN
# Assay: The compound was tested for binding inhibitory activity against Endothelin A receptor from porcine aortic smooth muscle membranes.
smiles,measurement,value
CC(C)C[C@@H]1NC(=O)[C@@H](CC(C)C)NC(=O)[C@H](C)NC(=O)[C@@H](CC(=O)O)NC(=O)[C@@H](Cc2c[nH]c3ccccc23)NC1=O,IC50,440 nM
